From patent publication US10435399B2, “HDAC6 inhibitory heterocyclic compound” (TAKEDA PHARMACEUTICAL COMPANY LIMITED, priority 2017, dated 2019)

Target: T1, HDAC6 enzyme (Homo sapiens, UniProt Q9UBN7)
T1 construct: transducing full length HDAC6 gene into Sf-9 insect cells; GST; purchased SignalChem; host or cells: Sf-9 insect cells
T1 sequence (Q9UBN7 1-1215): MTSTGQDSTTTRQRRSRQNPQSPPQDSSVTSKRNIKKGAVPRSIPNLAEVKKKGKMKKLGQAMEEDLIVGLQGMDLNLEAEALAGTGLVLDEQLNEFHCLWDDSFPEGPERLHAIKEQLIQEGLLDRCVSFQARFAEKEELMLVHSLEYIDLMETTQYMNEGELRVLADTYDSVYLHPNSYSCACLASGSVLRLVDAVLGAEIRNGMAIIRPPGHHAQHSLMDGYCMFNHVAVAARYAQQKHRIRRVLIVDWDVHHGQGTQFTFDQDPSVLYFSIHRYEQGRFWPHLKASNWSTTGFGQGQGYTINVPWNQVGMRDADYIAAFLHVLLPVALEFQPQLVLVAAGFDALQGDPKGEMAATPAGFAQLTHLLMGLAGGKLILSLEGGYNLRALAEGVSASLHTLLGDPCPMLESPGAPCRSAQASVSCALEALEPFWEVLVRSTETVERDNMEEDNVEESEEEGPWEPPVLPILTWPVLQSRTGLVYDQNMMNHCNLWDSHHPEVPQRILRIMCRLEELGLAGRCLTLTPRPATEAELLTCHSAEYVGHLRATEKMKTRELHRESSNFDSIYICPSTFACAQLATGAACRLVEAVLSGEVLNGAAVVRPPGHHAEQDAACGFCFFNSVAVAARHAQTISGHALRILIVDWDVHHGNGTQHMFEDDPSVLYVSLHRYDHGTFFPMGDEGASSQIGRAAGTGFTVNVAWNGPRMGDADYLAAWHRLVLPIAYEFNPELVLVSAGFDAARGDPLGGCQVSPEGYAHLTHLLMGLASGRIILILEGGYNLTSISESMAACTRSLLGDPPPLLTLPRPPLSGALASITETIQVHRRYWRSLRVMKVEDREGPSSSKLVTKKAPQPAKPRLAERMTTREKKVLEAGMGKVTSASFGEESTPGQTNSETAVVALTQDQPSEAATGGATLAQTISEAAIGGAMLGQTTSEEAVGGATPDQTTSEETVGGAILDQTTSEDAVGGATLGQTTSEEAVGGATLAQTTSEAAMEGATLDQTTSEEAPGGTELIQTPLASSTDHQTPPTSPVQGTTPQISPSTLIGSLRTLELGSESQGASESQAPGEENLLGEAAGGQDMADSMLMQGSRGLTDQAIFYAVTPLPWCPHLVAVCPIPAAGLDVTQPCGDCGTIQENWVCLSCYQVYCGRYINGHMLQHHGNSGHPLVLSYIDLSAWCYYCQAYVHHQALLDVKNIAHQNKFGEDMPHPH
Assay: HDAC6 enzyme inhibitory activity (HDAC-Glo I/II Assay kit)
Assay type: biochemical
Details: 10 μM; wells without enzyme = 100% inhibition
How it was run: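 Luminescence read-out after 20 min reaction with HDAC-Glo substrate-developer, following 60 min room-temperature preincubation of compound with Sf-9-expressed, GST-purified full-length enzyme. Inhibition is relative to no-enzyme wells set as 100%.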

| SMILES | HDAC6 inhibitory rate (%) (10 μM) |
| --- | --- |
| O=C1c2cc(-c3nnc(C(F)F)o3)ccc2CN1N1CCCC1c1ccccn1 (stereo not drawn) [Example 597, 6-(5-(difluoromethyl)-1,3,4-oxadiazol-2-yl)-2-(2-(pyridin-2-yl)pyrrolidin-1-yl)isoindolin-1-one (optical isomer)] | 99 |

Same assay, conditions: 10 μM; wells without enzyme = 100% inhibition; read-out: HDAC6 inhibitory rate (%) (10 μM)

| SMILES | inhibition at 10 µM [%] |
| --- | --- |
| O=C1c2cc(-c3nnc(C(F)F)o3)cnc2CN1[C@@H]1CC(F)(F)CC[C@H]1NC(=O)C(F)(F)C(F)(F)F [Example 642, N-((1R,2R)-2-(3-(5-(difluoromethyl)-1,3,4-oxadiazol-2-yl)-5-oxo-5,7-dihydro-6H-pyrrolo[3,4-b]pyridin-6-yl)-4,4-difluorocyclohexyl)-2,2,3,3,3-pentafluoropropanamide] | 100 |
| COc1ccc(-c2ccccc2N2Cc3ccc(-c4nnc(C(F)F)o4)cc3C2=O)cc1 [Example 134, 6-(5-(difluoromethyl)-1,3,4-oxadiazol-2-yl)-2-(4′-methoxybiphenyl-2-yl)isoindolin-1-one] | 101 |
| CC(C)(C)OC(=O)N1CCCC[C@@H]1CN1Cc2ccc(-c3nnc(C(F)F)o3)cc2C1=O [Example 34, tert-butyl (2R)-2-((6-(5-(difluoromethyl)-1,3,4-oxadiazol-2-yl)-1-oxo-1,3-dihydro-2H-isoindol-2-yl)methyl)piperidine-1-carboxylate] | 98 |
| O=C1c2cc(-c3nnc(C(F)F)o3)cnc2CN1Cc1ccc(F)cc1F [Example 348, 6-(2,4-difluorobenzyl)-3-(5-(difluoromethyl)-1,3,4-oxadiazol-2-yl)-6,7-dihydro-5H-pyrrolo-[3,4-b]pyridin-5-one] | 99 |
| CC(C)(C)OC(=O)N1CCOC[C@@H]1CN1Cc2c(F)cc(-c3nnc(C(F)F)o3)cc2C1=O [Example 168, tert-butyl (3S)-3-((6-(5-(difluoromethyl)-1,3,4-oxadiazol-2-yl)-4-fluoro-1-oxo-1,3-dihydro-2H-isoindol-2-yl)methyl)morpholine-4-carboxylate] | 100 |
| Cn1nc(C(F)(F)F)cc1-c1cc(F)ccc1N1Cc2c(F)cc(-c3nnc(C(F)F)o3)cc2C1=O [Example 388, 6-(5-(difluoro-methyl)-1,3,4-oxadiazol-2-yl)-4-fluoro-2-(4-fluoro-2-(1-methyl-3-(trifluoro-methyl)-1H-pyrazol-5-yl)phenyl) isoindolin-1-one] | 101 |
| O=C1c2cc(-c3nnc(C(F)F)o3)cc(F)c2CN1C[C@H]1CC(F)(F)CN1S(=O)(=O)c1cccc(F)c1 [Example 420, 2-(((2R)-4,4-difluoro-1-((3-fluoro-phenyl)sulfonyl)pyrrolidin-2-yl)methyl)-6-(5-(difluoro-methyl)-1,3,4-oxadiazol-2-yl)-4-fluoroiso-indolin-1-one] | 99 |
| COc1ccccc1CN1Cc2ncc(-c3nnc(C(F)F)o3)cc2C1=O [Example 357, 3-(5-(difluoromethyl)-1,3,4-oxadiazol-2-yl)-6-(2-methoxybenzyl)-6,7-dihydro-5H-pyrrolo[3,4-b]-pyridin-5-one] | 98 |
| O=C1c2cc(-c3nnc(C(F)F)o3)cnc2CN1Cc1nccs1 [Example 440, 3-(5-(difluoro-methyl)-1,3,4-oxadiazol-2-yl)-6-(1,3-thiazol-2-ylmethyl)-6,7-dihydro-5H-pyrrolo [3,4-b]pyridin-5-one] | 97 |
| Cn1cc(-c2cccc3ccnn23)c(N2Cc3ccc(-c4nnc(C(F)F)o4)cc3C2=O)n1 [Example 481, 6-(5-(difluoro-methyl)-1,3,4-oxadiazol-2-yl)-2-(1-methyl-4-(pyrazolo[1,5-a]pyridin-7-yl)-1H-pyrazol-3-yl)isoindolin-1-one] | 98 |
| O=C1c2cc(-c3nnc(C(F)F)o3)ccc2CN1c1cccn2cc(C(F)(F)F)nc12 [Example 571, 6-(5-(difluoromethyl)-1,3,4-oxadiazol-2-yl)-2-(2-(trifluoromethyl)imidazo[1,2-a]pyridin-8-yl)isoindolin-1-one] | 73 |
| O=C1c2cc(-c3nnc(C(F)F)o3)ccc2CN1N1CCC(F)(F)CC1c1ccc(F)cc1 (stereo not drawn) [Example 566, 2-(4,4-difluoro-2-(4-fluorophenyl)piperidin-1-yl)-6-(5-(difluoromethyl)-1,3,4-oxadiazol-2-yl)isoindolin-1-one] | 100 |
| O=C1c2cc(-c3nnc(C(F)F)o3)cc(F)c2CN1Cc1ccccc1 [Example 136, 2-benzyl-6-(5-(difluoromethyl)-1,3,4-oxadiazol-2-yl)-4-fluoroisoindolin-1-one] | 99 |
| O=C1c2cc(-c3nnc(C(F)F)o3)ccc2CN1[C@H]1CCCN[C@@H]1c1ccc(F)cc1 (racemic) [Example 575, 6-(5-(difluoromethyl)-1,3,4-oxadiazol-2-yl)-2-((2RS,3SR)-2-(4-fluorophenyl)piperidin-3-yl)isoindolin-1-one] | 100 |
| O=C1c2cc(-c3nnc(C(F)F)o3)cc(F)c2CN1C[C@@H]1CC(F)(F)CN1S(=O)(=O)c1cccc(F)c1 [Example 345, 2-(((2S)-4,4-difluoro-1-((3-fluorophenyl)sulfonyl)-pyrrolidin-2-yl)methyl)-6-(5-(difluoromethyl)-1,3,4-oxadiazol-2-yl)-4-fluoro-isoindolin-1-one] | 99 |
| N#Cc1ccccc1-c1ccccc1N1Cc2ccc(-c3nnc(C(F)F)o3)cc2C1=O [Example 230, 2′-(6-(5-(difluoromethyl)-1,3,4-oxadiazol-2-yl)-1-oxo-1,3-dihydro-2H-isoindol-2-yl)-biphenyl-2-carbonitrile] | 100 |
| CC(F)(F)C(=O)N[C@@H]1CCCC(F)(F)[C@H]1N1Cc2ncc(-c3nnc(C(F)F)o3)cc2C1=O [Example 500, N-((1R,2S)-2-(3-(5-(difluoro-methyl)-1,3,4-oxadiazol-2-yl)-5-oxo-5,7-dihydro-6H-pyrrolo[3,4-b]pyridin-6-yl)-3,3-difluoro-cyclohexyl)-2,2-difluoro-propanamide] | 99 |
| O=C1c2cc(-c3nnc(C(F)F)o3)cc(F)c2CN1[C@@H]1CCCC[C@H]1NS(=O)(=O)C1CC1 [Example 242, N-((1R,2R)-2-(6-(5-(difluoro-methyl)-1,3,4-oxadiazol-2-yl)-4-fluoro-1-oxo-1,3-dihydro-2H-isoindol-2-yl)cyclohexyl)-cyclopropanesulfonamide] | 101 |
| N#Cc1cccc(-c2cc(F)ccc2N2Cc3c(F)cc(-c4nnc(C(F)F)o4)cc3C2=O)c1 [Example 378, 2′-(6-(5-(difluoro-methyl)-1,3,4-oxadiazol-2-yl)-4-fluoro-1-oxo-1,3-dihydro-2H-isoindol-2-yl)-5′-fluorobiphenyl-3-carbonitrile] | 99 |
| CC(=O)N[C@@H]1CCCC[C@H]1N1Cc2c(F)cc(-c3nnc(C(F)F)o3)cc2C1=O [Example 152, N-((1R,2R)-2-(6-(5-(difluoromethyl)-1,3,4-oxadiazol-2-yl)-4-fluoro-1-oxo-1,3-dihydro-2H-isoindol-2-yl)cyclohexyl)acetamide] | 99 |
| O=C1c2cc(-c3nnc(C(F)F)o3)cnc2CN1[C@@H]1CCOC[C@H]1NCC(F)(F)F [Example 400, 3-(5-(difluoro-methyl)-1,3,4-oxadiazol-2-yl)-6-((3S,4R)-3-((2,2,2-trifluoro-ethyl)amino)tetrahydro-2H-pyran-4-yl)-6,7-dihydro-5H-pyrrolo[3,4-b] pyridin-5-one] | 99 |
| O=C(N[C@@H]1CCCC[C@H]1N1Cc2ccc(-c3nnc(C(F)F)o3)cc2C1=O)c1ccccc1Cl [Example 99, 2-chloro-N-((1R,2R)-2-(6-(5-(difluoromethyl)-1,3,4-oxadiazol-2-yl)-1-oxo-1,3-dihydro-2H-isoindol-2-yl)cyclohexyl)benzamide] | 100 |
| O=C1c2cc(-c3nnc(C(F)F)o3)ccc2CN1c1ccnn1-c1ccc(F)cc1 [Example 473, 6-(5-(difluoro-methyl)-1,3,4-oxadiazol-2-yl)-2-(1-(4-fluoro-phenyl)-1H-pyrazol-5-yl) isoindolin-1-one] | 99 |
